# Measured values: US11377425B1, “Small molecule modulators of IL-17” (LEO Pharma A/S, priority 2018, dated 2022)
# Molecular target: T1, human IL-17AA (Homo sapiens, UniProt Q16552)
# T1 construct: host or cells: HEK (human embryonic kidney) cells
# T1 sequence (Q16552 24-155): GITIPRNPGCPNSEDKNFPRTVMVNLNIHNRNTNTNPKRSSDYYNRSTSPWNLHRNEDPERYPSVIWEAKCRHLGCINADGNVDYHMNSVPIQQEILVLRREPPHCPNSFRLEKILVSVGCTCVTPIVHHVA
# Test: IL-8 release assay in human epithelial keratinocytes adult (HEKa)
# Type: cell-based
# Details: HEKa cells, 3 ng/mL HEK-human IL-17AA + 10 ng/mL human TNFalpha; read-out: Rel EC50 IL-8 release assay
# Outline: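 IL-8 release, quantified by HTRF and normalized to controls, reports IL-17 signaling in HEKa cells treated with compound plus final 3 ng/mL IL-17AA (HEK-derived) and 10 ng/mL TNF-alpha for 68-72 h; TNF-alpha-only wells set 100% inhibition. Four-parameter logistic fits (r^2>0.9) give relative IC50 and Emax; PrestoBlue flags cytotoxicity.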
row,SMILES,EC50
1,"Cn1cncc1-c1ccc(NC(=O)[C@@H](NC(=O)OC2CC2)C2CCCCC2)cc1O [Example 422, Cyclopropyl N-[(1S)-1-cyclohexyl-2-[3-hydroxy-4-(3-methylimidazol-4-yl)anilino]-2-oxo-ethyl]carbamate]",> 1 µM
2,"Cc1n[nH]c(C(C)O)c1-c1ccc(NC(=O)[C@@H](NC(=O)OC(C)(C)C)C2CCCCC2)cc1 (stereo partly drawn) [Example 433, Tert-butyl N-[(1S)-1-cyclohexyl-2-[4-[5-(1-hydroxyethyl)-3-methyl-1H-pyrazol-4-yl]anilino]-2-oxo-ethyl]carbamate]",> 1 µM
3,"Cc1[nH]nc(C(C)(C)O)c1-c1ccc(NC(=O)[C@@H](NC(=O)OC(C)(C)C)C2CCCCC2)cc1 [Example 436, tert-butyl N-[(1S)-1-cyclohexyl-2-[4-[5-(1-hydroxy-1-methyl-ethyl)-3-methyl-1H-pyrazol-4-yl]anilino]-2-oxo-ethyl]carbamate]",> 1 µM
4,"Cc1[nH]nc(CO)c1-c1ccc(NC(=O)[C@@H](NC(=O)OC(C)(C)C)C2CCCCCC2)cc1 [Example 439, tert-butyl N-[(1S)-1-cycloheptyl-2-[4-[5-(hydroxymethyl)-3-methyl-1H-pyrazol-4-yl]anilino]-2-oxo-ethyl]carbamate]",0.1 to 1 µM
5,"Cc1n[nH]c(C(C)O)c1-c1ccc(NC(=O)[C@@H](NC(=O)c2ccnn2C)C2CCCCC2)cc1 (stereo partly drawn) [Example 440, N-[(1S)-1-Cyclohexyl-2-[4-[5-(1-hydroxyethyl)-3-methyl-1H-pyrazol-4-yl]anilino]-2-oxo-ethyl]-2-methyl-pyrazole-3-carboxamide]",0.1 to 1 µM
6,"Cc1n[nH]c(C(C)O)c1-c1ccc(NC(=O)[C@@H](NC(=O)C2(F)CC2)C2CCCCC2)cc1 (stereo partly drawn) [Example 441, N-[(1S)-1-cyclohexyl-2-[4-[5-(1-hydroxyethyl)-3-methyl-1H-pyrazol-4-yl]anilino]-2-oxo-ethyl]-1-fluoro-cyclopropanecarboxamide]",> 1 µM
7,"Cc1n[nH]c(C(C)O)c1-c1ccc(NC(=O)[C@@H](NC(=O)C2(F)CC2)C(c2ccccc2)c2ccccc2)cc1 (stereo partly drawn) [Example 442, N-[(1S)-1-benzhydryl-2-[4-[5-(1-hydroxyethyl)-3-methyl-1H-pyrazol-4-yl]anilino]-2-oxo-ethyl]-1-fluoro-cyclopropanecarboxamide]",0.1 to 1 µM
8,"Cc1n[nH]c(C(C)O)c1-c1ccc(NC(=O)[C@@H](NC(=O)c2ccnn2C)C(c2ccccc2)c2ccccc2)cc1 (stereo partly drawn) [Example 443, N-[(1S)-1-benzhydryl-2-[4-[5-(1-hydroxyethyl)-3-methyl-1H-pyrazol-4-yl]anilino]-2-oxo-ethyl]-2-methyl-pyrazole-3-carboxamide]",0.1 to 1 µM
9,"Cc1n[nH]c(CO)c1-c1ccc(NC(=O)[C@@H](NC(=O)c2ccnn2C)C2CCCCC2)cc1 [Example 445, N-[(1S)-1-cyclohexyl-2-[4-[5-(hydroxymethyl)-3-methyl-1H-pyrazol-4-yl]anilino]-2-oxo-ethyl]-2-methyl-pyrazole-3-carboxamide]",0.1 to 1 µM
10,"Cc1n[nH]c(CO)c1-c1ccc(NC(=O)[C@@H](NC(=O)c2ccnn2C)C(c2ccccc2)c2ccccc2)cc1 [Example 447, N-[(1S)-1-benzhydryl-2-[4-[5-(hydroxymethyl)-3-methyl-1H-pyrazol-4-yl]anilino]-2-oxo-ethyl]-2-methyl-pyrazole-3-carboxamide]",0.1 to 1 µM
11,"CC(C)n1nccc1C(=O)N[C@H](C(=O)Nc1ccc(-c2c(C(C)(C)O)ncn2C)cc1)C(C1CC1)C1CC1 [Example 448, N-[(1S)-1-(Dicyclopropylmethyl)-2-[4-[5-(1-hydroxy-1-methyl-ethyl)-3-methyl-imidazol-4-yl]anilino]-2-oxo-ethyl]-2-isopropyl-pyrazole-3-carboxamide]",0.1 to 1 µM
12,"Cc1n[nH]c(N)c1-c1ccc(NC(=O)[C@@H](NC(=O)c2ccnn2C)C2CCCCC2)cc1 [Example 449, N-[(1S)-2-[4-(3-Amino-5-methyl-1H-pyrazol-4-yl)anilino]-1-cyclohexyl-2-oxo-ethyl]-2-methyl-pyrazole-3-carboxamide]",0.1 to 1 µM
13,"Cc1n[nH]c(N)c1-c1ccc(NC(=O)[C@@H](NC(=O)c2ccnn2C)C2CCCCCC2)cc1 [Example 450, N-[(1S)-2-[4-(5-amino-3-methyl-1H-pyrazol-4-yl)anilino]-1-cycloheptyl-2-oxo-ethyl]-2-methyl-pyrazole-3-carboxamide]",0.1 to 1 µM

# Continued, values first:
row,EC50,SMILES
1,0.1 to 1 µM,"Cc1n[nH]cc1-c1ccc(NC(=O)[C@@H](NC(=O)c2ccnn2C)C(c2ccccc2)c2ccccc2)cc1O [Example 421, N-[(1S)-1-Benzhydryl-2-[3-hydroxy-4-(3-methyl-1H-pyrazol-4-yl)anilino]-2-oxo-ethyl]-2-methyl-pyrazole-3-carboxamide]"
2,0.1 to 1 µM,"Cc1ncn(C)c1-c1ccc(NC(=O)[C@@H](NC(=O)OC2CC2)C(c2ccccc2)c2ccccc2)cc1 [Example 423, Cyclopropyl N-[(1S)-1-benzhydryl-2-[4-(3,5-dimethylimidazol-4-yl)anilino]-2-oxo-ethyl]carbamate]"
3,0.1 to 1 µM,"Cc1n[nH]c(C)c1-c1ccc(NC(=O)[C@@H](NC(=O)OC2CC2)C2CCCCC2)cc1O [Example 424, cyclopropyl N-[(1S)-1-cyclohexyl-2-[4-(3,5-dimethyl-1H-pyrazol-4-yl)-3-hydroxy-anilino]-2-oxo-ethyl]carbamate]"
4,0.1 to 1 µM,"Cc1n[nH]c(C)c1-c1ccc(NC(=O)[C@@H](NC(=O)OC2CC2)C2CCCCCC2)cc1O [Example 425, cyclopropyl N-[(1S)-1-cycloheptyl-2-[4-(3,5-dimethyl-1H-pyrazol-4-yl)-3-hydroxy-anilino]-2-oxo-ethyl]carbamate]"
5,0.1 to 1 µM,"Cc1n[nH]c(C)c1-c1ccc(NC(=O)[C@@H](NC(=O)OC2CC2)C(c2ccccc2)c2ccccc2)cc1 [Example 426, cyclopropyl N-[(1S)-1-benzhydryl-2-[4-(3,5-dimethyl-1H-pyrazol-4-yl)anilino]-2-oxo-ethyl]carbamate]"
6,< 0.1 µM,"Cc1n[nH]c(C)c1-c1ccc(NC(=O)[C@@H](NC(=O)OC2CC2)C2CCCCCC2)cc1 [Example 427, cyclopropyl N-[(1S)-1-cycloheptyl-2-[4-(3,5-dimethyl-1H-pyrazol-4-yl)anilino]-2-oxo-ethyl]carbamate]"
7,< 0.1 µM,"Cc1n[nH]c(C)c1-c1ccc(NC(=O)[C@@H](NC(=O)OC2CCC2)C(C2CC2)C2CC2)cc1 [Example 428, Cyclobutyl N-[(1S)-1-(dicyclopropylmethyl)-2-[4-(3,5-dimethyl-1H-pyrazol-4-yl)anilino]-2-oxo-ethyl]carbamate]"
8,0.1 to 1 µM,"Cc1n[nH]c(C)c1-c1ccc(NC(=O)[C@@H](NC(=O)OCc2ccccc2)C2CCCCC2)cc1 [Example 429, benzyl N-[(1S)-1-cyclohexyl-2-[4-(3,5-dimethyl-1H-pyrazol-4-yl)anilino]-2-oxo-ethyl]carbamate]"
9,0.1 to 1 µM,"Cc1n[nH]c(C)c1-c1ccc(NC(=O)[C@@H](NC(=O)OCc2cccnc2)C2CCCCC2)cc1 [Example 430, 3-pyridylmethyl N-[(1S)-1-cyclohexyl-2-[4-(3,5-dimethyl-1H-pyrazol-4-yl)anilino]-2-oxo-ethyl]carbamate]"
10,0.1 to 1 µM,"Cc1n[nH]c(C)c1-c1ccc(NC(=O)[C@@H](NC(=O)OCc2ccccn2)C2CCCCC2)cc1 [Example 431, 2-pyridylmethyl N-[(1S)-1-cyclohexyl-2-[4-(3,5-dimethyl-1H-pyrazol-4-yl)anilino]-2-oxo-ethyl]carbamate]"
11,< 0.1 µM,"Cc1n[nH]c(CO)c1-c1ccc(NC(=O)[C@@H](NC(=O)c2ccnn2C(C)C)C(C2CC2)C2CC2)cc1 [Example 432, N-[(1S)-1-(Dicyclopropylmethyl)-2-[4-[5-(hydroxymethyl)-3-methyl-1H-pyrazol-4-yl]anilino]-2-oxo-ethyl]-2-isopropyl-pyrazole-3-carboxamide]"
12,0.1 to 1 µM,"Cc1[nH]nc(C(C)O)c1-c1ccc(NC(=O)[C@@H](NC(=O)OC(C)(C)C)C(c2ccccc2)c2ccccc2)cc1 (stereo partly drawn) [Example 434, tert-butyl N-[(1S)-1-benzhydryl-2-[4-[5-(1-hydroxyethyl)-3-methyl-1H-pyrazol-4-yl]anilino]-2-oxo-ethyl]carbamate]"
13,0.1 to 1 µM,"Cc1n[nH]c(C(C)(C)O)c1-c1ccc(NC(=O)[C@@H](NC(=O)c2ccnn2C)C(c2ccccc2)c2ccccc2)cc1 [Example 435, N-[(1S)-1-benzhydryl-2-[4-[5-(1-hydroxy-1-methyl-ethyl)-3-methyl-1H-pyrazol-4-yl]anilino]-2-oxo-ethyl]-2-methyl-pyrazole-3-carboxamide]"
14,0.1 to 1 µM,"Cc1[nH]nc(CO)c1-c1ccc(NC(=O)[C@@H](NC(=O)OC(C)(C)C)C(c2ccccc2)c2ccccc2)cc1 [Example 437, tert-butyl N-[(1S)-1-benzhydryl-2-[4-[5-(hydroxymethyl)-3-methyl-1H-pyrazol-4-yl]anilino]-2-oxo-ethyl]carbamate]"
15,0.1 to 1 µM,"Cc1[nH]nc(CO)c1-c1ccc(NC(=O)[C@@H](NC(=O)OC(C)(C)C)C2CCCCC2)cc1 [Example 438, tert-butyl N-[(1S)-1-cyclohexyl-2-[4-[5-(hydroxymethyl)-3-methyl-1H-pyrazol-4-yl]anilino]-2-oxo-ethyl]carbamate]"
16,< 0.1 µM,"Cc1n[nH]c(CO)c1-c1ccc(NC(=O)[C@@H](NC(=O)c2ccnn2C)C2CCCCCC2)cc1 [Example 446, N-[(1S)-1-cycloheptyl-2-[4-[5-(hydroxymethyl)-3-methyl-1H-pyrazol-4-yl]anilino]-2-oxo-ethyl]-2-methyl-pyrazole-3-carboxamide]"
17,< 0.1 µM,"Cc1n[nH]c(N)c1-c1ccc(NC(=O)[C@@H](NC(=O)c2ccnn2C)C(C2CCC2)C2CCC2)cc1 [Example 451, N-[(1S)-1-[[4-(3-amino-5-methyl-1H-pyrazol-4-yl)phenyl]carbamoyl]-2,2-di(cyclobutyl)ethyl]-2-methyl-pyrazole-3-carboxamide]"
